Tests used:
[1] = test system: hIL-17 mRNA in human peripheral blood mononuclear cells; test: Inhibition of hIL-17 mRNA transcription in OKT3-stimulated PBMC; assay type: cell-based; conditions: OKT3 antibody, 6 h, read-out: IL-17 activity
Procedure: In this example, hIL-17 mRNA in human peripheral blood mononuclear cells were quantitated to measure the transcriptional inhibition of hIL-17 when treated with a compound of the present disclosure.
Human peripheral blood mononuclear cells were plated (2.0×10^5 cells per well) in a 96-well plate in 45 μL OpTimizer T Cell expansion media (Life Technologies) containing 20 ng/ml IL-2 and penicillin/streptomycin. The cells were treated with increasing concentrations of the test compound or DMSO (0.1%), and incubated at 37° C., 5% CO2 for 1 h before addition of 10× stock OKT3 antibody at 10 ug/ml in media. Triplicate wells were used for each concentration. Cells were incubated at 37° C., 5% CO2 for 6 h before the cells were harvested. At time of harvest, cells were pelleted by centrifugation at 800 rpm for 5 min. Cells were harvested using the mRNA Catcher PLUS kit according to manufacturer's instructions. The eluted mRNA was then used in a one-step quantitative real-time PCR reaction, using components of the RNA UltraSense™ One-Step Kit (Life Technologies) together with Applied Biosystems TaqMan® primer-probes for hIL-17 and Cyclophilin. Real-time PCR plates were run on a ViiA™7 real time PCR machine (Applied Biosystems), data was analyzed, normalizing the Ct values for hIL-17 to an internal control, prior to determining the fold induction of each unknown sample, relative to the control.

[2] = test system: Human AML MV-4-11 cells; test: Inhibition of cell proliferation in MV4-11 cells (CellTiter Aqueous One); assay type: cell-based; conditions: 72 h
Method in brief: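 MV4-11 cells at 5×10^4/well in IMDM with 10% FBS were exposed to increasing compound concentrations or 0.1% DMSO, in triplicate, for 72 h at 37 °C. A further 3-4 h with CellTiter Aqueous One reagent followed. A490, blank-corrected and expressed relative to DMSO, gave IC50.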

[3] = test system: c-myc in Human AML MV4-11 cells; test: Inhibition of c-MYC expression (mRNA, real-time PCR) in MV4-11 cells; assay type: cell-based; conditions: 3 h, mRNA by real-time PCR
Method in brief: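 Cells at 2.5×10^4 per well in IMDM/10% FBS were treated with rising compound concentrations or 0.1% DMSO for 3 h at 37° C., in triplicate. cMYC mRNA was measured by one-step TaqMan qRT-PCR, normalised to cyclophilin, and expressed as fold expression relative to control.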

[4] = target: T1, Brd4 bromodomain 1 (BRD4(1)) (Homo sapiens, UniProt O60885); test: Inhibition of tetra-acetylated histone H4 binding to Brd4 bromodomain 1 (HTRF/FRET); conditions: tetra-acetylated histone H4 peptide, His-tagged bromodomain 200 nM, 2 h
T1 construct: made in house; host or cells: E. coli BL21(DE3)
Method in brief: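 Inhibition was read as a drop in 665 nm relative to 620 nm HTRF signal after 2 h at room temperature, with IC50 from dose-response curves in duplicate wells. Reactions held 200 nM E. coli-expressed His-tagged bromodomain and 25-50 nM biotinylated tetra-acetylated histone H4 peptide. Buffer was 30 mM HEPES pH 7.4 with KF, CHAPS, BSA and 0.2% DMSO.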

[5] = test system: hIL-6 mRNA in U937 cells; test: Inhibition of hIL-6 mRNA transcription in LPS-stimulated U937 cells; assay type: cell-based; conditions: Homo sapiens, U-937, PMA-differentiated U937 cells, LPS 1 ug/mL, 3 h, read-out: IL-6 activity
Method in brief: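 U937 cells were differentiated to macrophages with 60 ng/mL PMA for 3 days, pretreated 1 h with compound in 0.1% DMSO, then stimulated with 1 ug/mL E. coli LPS for 3 h at 37° C. hIL-6 mRNA was quantified by one-step TaqMan RT-qPCR, normalized to cyclophilin, as fold expression versus control.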

[6] = test system: hApoA-I mRNA in Huh7 cells; test: Up-regulation of hApoA-1 mRNA transcription in Huh7 cells; assay type: cell-based, Human; conditions: EC170, Huh7 cells, 48 h
Procedure: In this example, hApoA-I mRNA in tissue culture cells was quantitated to measure the transcriptional up-regulation of hApoA-I when treated with a compound of the present disclosure.
Huh7 cells (2.5×10^5 per well) were plated in a 96-well plate using 100 μL DMEM per well, (Gibco DMEM supplemented with penicillin/streptomycin and 10% FBS), 72 h before the addition of the compound. The cells are treated with increasing concentrations of the compound or DMSO (0.1%), and incubated at 37° C., 5% CO2 for 48 h. Spent media was removed from the Huh-7 cells and placed on ice for immediate use with the “LDH cytotoxicity assay Kit II” from Abcam. The cells remaining in the plate were rinsed with 100 μL PBS. Cells were harvested using the mRNA Catcher PLUS kit according to manufacturer's instructions. The eluted mRNA was then used in a one-step quantitative real-time PCR reaction, using components of the RNA UltraSense™ One-Step Kit (Life Technologies) together with Applied Biosystems TaqMan® primer-probes for hApoA-I and Cyclophilin. Real-time PCR plates were run on a ViiA™7 real time PCR machine (Applied Biosystems), data was analyzed, normalizing the Ct values for hApoA-1 to an internal control, prior to determining the fold induction of each unknown sample, relative to the control.

Q: What does the source list for `Cc1nn(C)cc1-c1cc(-c2c(C)noc2C)cc2[nH]c(=O)n(C)c12` [Example Compound 7, 7-(1,3-dimethyl-1H-pyrazol-4-yl)-5-(3,5-dimethylisoxazol-4-yl)-1-methyl-1H-benzo[d]imidazol-2(3H)-one]?
A: IC50 [1]: 0.3 to 3 µM; IC50 [2]: ≤ 0.3 µM; IC50 [3]: ≤ 0.3 µM; IC50 [4]: ≤ 0.3 µM; IC50 [5]: ≤ 0.3 µM; ApoA-1 activity [6]: +++ (EC170 value less than or equal to 0.3 μM were deemed to be highly active (+++))

Q: `Cc1noc(C)c1-c1cc(-c2c(C)noc2C)c2[nH]c(=O)[nH]c2c1` [Example Compound 1, 4,6-bis(3,5-dimethylisoxazol-4-yl)-1H-benzo[d]imidazol-2(3H)-one] was tested. Which IC50 [1] did it give?
A: ≤ 0.3 µM

Q: What about the IC50 [2] of the same molecule?
A: ≤ 0.3 µM

Q: What about the IC50 [3] of the same molecule?
A: 0.3 to 3 µM

Q: And the IC50 [4]?
A: ≤ 0.3 µM

Q: And the IC50 [5]?
A: ≤ 0.3 µM

Q: What about the ApoA-1 activity [6] of the same molecule?
A: +++ (EC170 value less than or equal to 0.3 μM were deemed to be highly active (+++))
